The source of these data is patent US8895617B1, “Composition and method for treating neurological disease” (Adamas Pharmaceuticals, Inc., priority 2004, dated 2014).

For data set [1] the following is noted: humans; cited from earlier work.
A short description of data set [2]: In vitro release profile, USP type 2 (paddle) dissolution. It counts as physicochemical. The following applies: USP II Paddle, 0.1N HCl. On the procedure:
Compositions containing an aminoadamantane and levodopa/carbidopa are analyzed for release of the aminoadamantane and levodopa/carbidopa, according to the USP type 2 apparatus at a speed of 50 rpm. The dissolution media used include water, 0.1N HCl, or 0.1N HCl adjusted to pH 6.8 at 2 hours with phosphate buffer. The dissolution medium is equilibrated to 37±0.5° C.
The USP reference assay method for amantadine is used to measure the fraction of memantine released from the compositions prepared herein. Briefly, 0.6 mL sample (from the dissolution apparatus at a given time point) is placed into a 15 mL culture tube. 1.6 mL 0.1% Bromocresol Purple (in acetic acid) is added and vortexed for five seconds. The mixture is allowed to stand for approximately five minutes. 3 mL Chloroform is added and vortexed for five seconds. The solution is next centrifuged (speed […]) for five minutes. The top layer is removed with a disposable pipette. A sample is drawn into 1 cm flow cell and the absorbance is measured at 408 nm at 37° C. and compared against a standard curve prepared with known quantities of the same aminoadamantane. The quantity of determined is plotted against the dissolution time for the sample.
The USP reference assay method for levodopa is used to measure the fraction of levodopa released from the compositions prepared herein. Briefly, 0.5 ml samples from the dissolution apparatus removed at various times are assayed by liquid chromatography. The chromatograph is equipped with a 280 nm detector and a 3.9 mm×30 cm column containing packing Ll. The mobile phase is 0.09 N sodium phosphate, 1 mM sodium 1-decanesulfonate, pH 2.8. With the flow rate adjusted to about 2 mL per minute, the levodopa elutes in about 4 minutes and carbidopa elutes in about 11 minutes. From the saved dissolution samples, a 0.02 ml aliquot is injected into the chromatograph and the absorbance is measure and compared to standard to determine concentration & quantity. The quantity dissolved is then plotted against the dissolution time for the sample.
The cumulative fraction is the amount of drug substance released from the formulation matrix to the serum or gut environment (e.g., U.S. Pat. No. 4,839,177 or 5,326,570) or as measured with a USP II Paddle system using 0.1N HCl as the dissolution medium.

Data set [3] is described as follows: Estimated amantadine concentration in squirrel monkeys. It counts as in vivo, squirrel monkey. The conditions noted are these: amantadine raised from 1 mg/kg to 45 mg/kg. On the procedure:
Briefly, squirrel monkeys (N=4) were lesioned with MPTP according to the protocol of Di Monte et al. (Mov. Disord. 15: 459-66 (2000)). […] Levodopa treatment at approximately 15 mg/kg (with 1.5 mg/kg carbidopa) mg/kg b.i.d. commenced a baseline UPDRS and dyskinesia measurement was established. […] We hypothesize that this translates into a potential 40% reduction in levodopa required to maintain UPDRS.

“Also recorded” adds a separate entry of the source.

In the case of `CC(N)C12CC3CC(CC(C3)C1)C2` (stereo not shown) [Rimantadine, 1-(1-aminoethyl)adamantane], in data set [1], the “Dose Dependent Toxicity” value was “Insomnia”.
Take `NC12CC3CC(CC(C3)C1)C2` [Amantadine, 1-amino-adamantane]: the cum. fraction released in data set [2] (Time 0, amantadine and levodopa/carbidopa combination) was determined as 0.00; in data set [2] (Time 0.5) it was 0.10; in data set [2] (Time 1.0), 0.20; in data set [2] (Time 2.0) it was 0.35; in data set [2] (Time 4.0) it was 0.60; in data set [2] (Time 8.0), 0.90. The cum. fraction released in data set [2] (Time 12.0) is reported as 0.98. In data set [3], the estimated concentration is listed as around 3 μm.
Regarding `CC12CC3CC(C)(C1)CC(N)(C3)C2` [Memantine, 1-amino-3,5-dimethyladamantane], the “Dose Dependent Toxicity” value in data set [1] was “Dose escalation; also recorded: hallucination”.
